Data taken from patent US10689378B2, “Triazolopyridine compounds and uses thereof” (Novartis AG, priority 2016, dated 2020).
Where two headings read alike, the source gives them in different places.

Legend:
[1] = biological target: wild type PRC2 (wtPRC2) complex (Homo sapiens, UniProt O75530); assay: EED LC-MS assay (SAH production by PRC2); type: biochemical; conditions: read-out: (b) IC50, EED LC-MS Qualified
Description: Compounds of the present invention were assessed for their ability to inhibit PRC2 activity in a pentameric complex of EZH2, SUZ12, EED, Rbap48 and AEBP in biochemical assays. The ability of compounds of the present invention to inhibit cellular activity of PRC2 was assessed by analysing histone H3 lysine 27 methylation in human cell lines. The ability of compounds of the present invention to inhibit cancers was derived from their ability to modulate activity in human cancer cell lines bearing specific dependence to PRC2 activity to maintain cancerous growth.
Representative compounds of the present invention were serially and separately diluted 3-fold in DMSO to obtain a total of eight or twelve concentrations. Then the test compounds at each concentration (120 nL of each) were transferred by Mosquito into a 384-well Perkin Elmer ProxiPlate 384 plus plates. Solutions (6 μL) of 24 nM the wild type PRC2 (wtPRC2) complex and 2 μM SAM in reaction buffer (20 mM Tris, pH 8.0, 0.1% BSA, 0.01% Triton, 0.5 mM DTT) were added to the wells that were then incubated with the test compound for 20 min. A 6 μL solution of 3 μM of the peptide substrate H3K27Me0 (histone H3[21-44]-biotin) in reaction buffer was added to initiate each reaction. The final components in the reaction solution include 12 nM wtPRC2 complex, 1 μM SAM, and 1.5 μM H3K27me0 peptide with varying concentration of the compounds. A positive control consisted of the enzyme, 1 μM SAM and 1.5 μM substrate in the absence of the test compound, and a negative control consisted of 1 μM SAM and 1.5 μM substrate only. Each reaction was incubated at rt for 120 min, then stopped by addition of 3 μL per of quench solution (2.5% TFA with 320 nM d4-SAH). The reaction mixture was centrifuged (Eppendorf centrifuge 5810, Rotor A-4-62) for 2 min at 2000 rpm and read on an API 4000 triple quadrupole mass spec with Turbulon Spray (Applied Biosystem) coupled with Prominence UFLC (Shimadzu). The levels of SAH production were then normalized based on the values coming from the positive and negative controls to give percent enzyme activities. The data were then fit to a dose response equation using the program Helios to get the IC50 values of the test compound.

[2] = test system: H3K27 methylation in G401 cell; assay: ELISA (H3K27 methylation) assay in G401 cells; type: cell-based, human
Summary of the method: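 G401 cells treated 48 h with 3-fold dilutions (8 or 12 points, top 20 μM). Acid-extracted histones probed by ELISA for H3K27me3 or H3K27me2 with ECL readout, normalized to total H3. Percent inhibition versus DMSO fitted to dose-response curve for IC50.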

EED (1-441)-His protein = biological target: T1, EED (1-441)-His protein (Homo sapiens, UniProt O75530); assay: EED-H3K27Me3 peptide competition binding assay by AlphaScreen; conditions: read-out: (a) IC50, EED Alphascreen binding Qualified
T1 construct: 30 nM EED (1-441)-His protein
Summary of the method: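 Serially diluted compound (12 points, 3-fold) incubated 20 min with 30 nM EED(1-441)-His and 15 nM biotin-H3K27Me3(19-33) peptide in 25 mM HEPES pH 8, 0.02% Tween-20, 0.5% BSA. Ni-chelate acceptor/streptavidin donor beads (10 μg/mL each) added, 1 h rt dark; 615 nm emission normalized to controls, dose-response fit for IC50.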

[3] = Homo sapiens, G-401, read-out: (c) IC50, ELISA Qualified

T1 sequence (O75530 whole entry): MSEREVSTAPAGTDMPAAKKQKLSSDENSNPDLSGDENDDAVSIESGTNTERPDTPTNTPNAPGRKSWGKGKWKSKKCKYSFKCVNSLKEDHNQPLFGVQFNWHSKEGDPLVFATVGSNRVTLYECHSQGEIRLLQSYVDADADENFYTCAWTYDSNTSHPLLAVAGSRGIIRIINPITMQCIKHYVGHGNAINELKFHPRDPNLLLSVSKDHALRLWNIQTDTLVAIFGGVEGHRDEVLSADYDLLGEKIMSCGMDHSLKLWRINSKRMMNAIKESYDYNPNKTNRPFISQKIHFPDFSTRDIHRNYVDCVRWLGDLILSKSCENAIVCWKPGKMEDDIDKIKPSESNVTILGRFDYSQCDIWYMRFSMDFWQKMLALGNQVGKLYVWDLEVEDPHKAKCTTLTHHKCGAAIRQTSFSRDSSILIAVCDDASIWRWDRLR
Sequence of wild type PRC2 (wtPRC2) complex (O75530 whole entry): as above
Sequence of wild type PRC2 (wtPRC2) complex (Q15910 whole entry partner): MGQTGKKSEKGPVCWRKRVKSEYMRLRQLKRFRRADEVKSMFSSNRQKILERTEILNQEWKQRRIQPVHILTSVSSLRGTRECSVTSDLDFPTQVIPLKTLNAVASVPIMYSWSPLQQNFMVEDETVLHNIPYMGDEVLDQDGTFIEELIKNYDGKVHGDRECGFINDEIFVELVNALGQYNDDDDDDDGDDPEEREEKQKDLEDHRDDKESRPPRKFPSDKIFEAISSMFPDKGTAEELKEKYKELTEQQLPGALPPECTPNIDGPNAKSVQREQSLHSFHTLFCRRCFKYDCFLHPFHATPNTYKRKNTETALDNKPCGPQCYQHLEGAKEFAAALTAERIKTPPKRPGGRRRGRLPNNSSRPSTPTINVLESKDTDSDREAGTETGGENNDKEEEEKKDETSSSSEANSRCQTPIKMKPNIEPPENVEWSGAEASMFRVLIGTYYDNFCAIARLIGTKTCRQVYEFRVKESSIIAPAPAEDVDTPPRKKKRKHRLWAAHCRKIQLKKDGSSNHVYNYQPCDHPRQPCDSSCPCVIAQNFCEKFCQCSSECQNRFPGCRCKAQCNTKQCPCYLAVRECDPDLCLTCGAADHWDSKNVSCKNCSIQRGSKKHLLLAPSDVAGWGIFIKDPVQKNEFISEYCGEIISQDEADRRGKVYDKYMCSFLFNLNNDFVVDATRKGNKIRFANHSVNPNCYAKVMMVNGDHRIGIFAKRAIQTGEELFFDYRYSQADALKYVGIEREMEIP
Sequence of wild type PRC2 (wtPRC2) complex (Q15022 whole entry partner): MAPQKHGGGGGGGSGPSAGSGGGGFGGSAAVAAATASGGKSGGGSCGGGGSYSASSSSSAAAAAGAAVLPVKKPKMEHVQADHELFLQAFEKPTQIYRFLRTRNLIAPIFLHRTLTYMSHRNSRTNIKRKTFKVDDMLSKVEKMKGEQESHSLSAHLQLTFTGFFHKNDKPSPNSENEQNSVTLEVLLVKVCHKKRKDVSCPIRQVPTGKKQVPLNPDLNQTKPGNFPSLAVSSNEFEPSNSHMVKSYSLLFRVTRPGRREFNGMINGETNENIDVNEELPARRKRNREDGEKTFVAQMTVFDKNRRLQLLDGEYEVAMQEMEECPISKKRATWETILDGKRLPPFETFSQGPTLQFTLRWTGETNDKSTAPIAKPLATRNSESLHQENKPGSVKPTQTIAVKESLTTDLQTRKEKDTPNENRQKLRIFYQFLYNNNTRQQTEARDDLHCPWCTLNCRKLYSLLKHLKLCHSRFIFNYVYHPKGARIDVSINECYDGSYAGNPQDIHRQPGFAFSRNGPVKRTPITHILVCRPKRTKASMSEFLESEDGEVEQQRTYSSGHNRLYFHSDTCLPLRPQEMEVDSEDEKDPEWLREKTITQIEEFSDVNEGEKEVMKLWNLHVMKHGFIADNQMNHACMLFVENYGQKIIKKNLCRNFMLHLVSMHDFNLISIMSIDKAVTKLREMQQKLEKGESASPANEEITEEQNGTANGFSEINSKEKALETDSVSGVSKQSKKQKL
Sequence of wild type PRC2 (wtPRC2) complex (Q09028 whole entry partner): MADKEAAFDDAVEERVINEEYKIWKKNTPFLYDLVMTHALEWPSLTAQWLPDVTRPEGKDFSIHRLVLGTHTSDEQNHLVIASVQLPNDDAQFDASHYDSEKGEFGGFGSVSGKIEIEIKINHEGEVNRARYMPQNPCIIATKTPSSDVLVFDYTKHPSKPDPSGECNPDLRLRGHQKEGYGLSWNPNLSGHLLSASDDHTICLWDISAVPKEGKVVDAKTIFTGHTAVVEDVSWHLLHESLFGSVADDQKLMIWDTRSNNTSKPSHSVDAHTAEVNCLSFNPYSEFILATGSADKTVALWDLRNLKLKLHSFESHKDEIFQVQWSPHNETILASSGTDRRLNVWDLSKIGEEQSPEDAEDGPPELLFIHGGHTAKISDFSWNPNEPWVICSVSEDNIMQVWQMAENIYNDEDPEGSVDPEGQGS
Sequence of wild type PRC2 (wtPRC2) complex (Q6ZN18 whole entry partner): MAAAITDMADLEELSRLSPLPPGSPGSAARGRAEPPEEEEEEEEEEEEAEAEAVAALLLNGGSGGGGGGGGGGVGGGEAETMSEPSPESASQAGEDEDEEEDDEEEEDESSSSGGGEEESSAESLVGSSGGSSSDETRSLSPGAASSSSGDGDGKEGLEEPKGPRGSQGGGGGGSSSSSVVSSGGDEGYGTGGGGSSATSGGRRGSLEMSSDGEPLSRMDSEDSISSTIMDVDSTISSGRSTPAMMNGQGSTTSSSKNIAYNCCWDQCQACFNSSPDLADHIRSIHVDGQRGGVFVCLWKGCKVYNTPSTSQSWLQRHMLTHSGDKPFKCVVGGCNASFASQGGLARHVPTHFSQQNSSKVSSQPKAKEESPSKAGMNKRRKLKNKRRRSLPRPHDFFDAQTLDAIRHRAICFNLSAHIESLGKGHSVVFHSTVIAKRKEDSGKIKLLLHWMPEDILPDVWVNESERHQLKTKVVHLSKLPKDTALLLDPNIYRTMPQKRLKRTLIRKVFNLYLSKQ

CCc1nc(-c2ccc(NCc3c(F)cccc3OC)n3cnnc23)no1 [Example 10, 8-(5-Ethyl-1,2,4-oxadiazol-3-yl)-N-(2-fluoro-6-methoxybenzy)-[1,2,4]triazolo[4,3-a]pyridin-5-amine]
IC50 [1]: 198 nM
IC50 ([2]; read-out: (c) IC50, ELISA Qualified): 9.3 nM
IC50 (EED (1-441)-His protein): 61.1 nM

COc1cccc(F)c1CNc1ccc(-c2nc(C)no2)c2nncn12 [Example 11, N-(2-Fluoro-6-methoxybenzyl)-8-(3-methyl-1,2,4-oxadiazol-5-yl)-[1,2,4]triazolo[4,3-a]pyridin-5-amine]
IC50 [1]: 119 nM
IC50 [2, 3]: 40.5 nM
IC50 (EED (1-441)-His protein): 30.7 nM

COc1ccccc1CNc1ccc(-c2ccc(CN(C)C)cc2)c2nncn12 [Example 15, 8-(4-((dimethylamino)methyl)phenyl)-N-(2-methoxybenzyl)-[1,2,4] triazolo[4,3-a]pyridin-5-amine]
IC50 [1]: 66.3 nM
IC50 [2, 3]: 17.5 nM
IC50 (EED (1-441)-His protein): 14.9 nM

COc1ccc(-c2ccc(NCc3ccccc3OC)n3cnnc23)cn1 [Example 16, N-(2-methoxybenzyl)-8-(6-methoxypyridin-3-yl)-[1,2,4] triazolo[4,3-a]pyridin-5-amine]
IC50 [1]: 377 nM
IC50 [2, 3]: 158 nM
IC50 (EED (1-441)-His protein): 56.2 nM

COc1ccccc1CNc1ccc(-c2ccc(S(=O)(=O)N3CCN(C)CC3)cc2)c2nncn12 [Example 18, N-(2-methoxybenzyl)-8-(4-((4-methylpiperazin-1-yl)sulfonyl)phenyl)-[1,2,4] triazolo[4,3-a]pyridin-5-amine]
IC50 [1]: 930 nM
IC50 [2, 3]: 114 nM
IC50 (EED (1-441)-His protein): 81.7 nM

CN(C)Cc1ccc(-c2ccc(NCc3ccccc3OC(F)F)n3cnnc23)cc1 [Example 19, N-(2-(difluoromethoxy)benzyl)-8-(4-((dimethylamino)methyl)phenyl)-[1,2,4]triazolo[4,3-a] pyridin-5-amine]
IC50 [1]: 587 nM
IC50 [2, 3]: 363 nM
IC50 (EED (1-441)-His protein): 169 nM

COc1ccccc1CNc1ccc(-c2cnc(N3CCN(C)CC3)c(C)c2)c2nncn12 [Example 20, N-(2-methoxybenzyl)-8-(5-methyl-6-(4-methylpiperazin-1-yl)pyridin-3-yl)-[1,2,4]triazolo[4,3-a]pyridin-5-amine]
IC50 [1]: 248 nM
IC50 [2, 3]: 185 nM
IC50 (EED (1-441)-His protein): 79 nM

COc1ccccc1CNc1ccc(-c2ccc(N3CCN(C)CC3)nc2)c2nncn12 [Example 21, N-(2-methoxybenzyl)-8-(6-(4-methylpiperazin-1-yl)pyridin-3-yl)-[1,2,4] triazolo[4,3-a]pyridin-5-amine]
IC50 [1]: 1060 nM
IC50 [2, 3]: 234 nM
IC50 (EED (1-441)-His protein): 124 nM

COc1ccccc1CNc1ccc(-c2ccc(N3CCN(C)CC3)cc2)c2nncn12 [Example 22, N-(2-methoxybenzyl)-8-(4-(4-methylpiperazin-1-yl)phenyl)-[1,2,4]triazolo[4,3-a] pyridin-5-amine]
IC50 [1]: 365 nM
IC50 [2, 3]: 42.3 nM
IC50 (EED (1-441)-His protein): 56.2 nM

COc1ccccc1CNc1ccc(-c2ccncc2)c2nncn12 [Example 24, N-(2-methoxybenzyl)-8-(pyridin-4-yl)-[1,2,4] triazolo[4,3-a]pyridin-5-amine]
IC50 [1]: 92.1 nM
IC50 [2, 3]: 47.8 nM
IC50 (EED (1-441)-His protein): 46.4 nM

COc1ccccc1CNc1ccc(-c2ccc(S(C)(=O)=O)cc2)c2nncn12 [Example 25, N-(2-methoxybenzyl)-8-(4-(methylsulfonyl)phenyl)-[1,2,4]triazolo[4,3-a]pyridin-5-amine]
IC50 [1]: 151 nM
IC50 [2, 3]: 50.3 nM
IC50 (EED (1-441)-His protein): 33.6 nM

COc1ccccc1CNc1ccc(-c2ccnnc2)c2nncn12 [Example 26, N-(2-methoxybenzyl)-8-(pyridazin-4-yl)-[1,2,4] triazolo[4,3-a]pyridin-5-amine]
IC50 [1]: 498 nM
IC50 [2, 3]: 47.7 nM
IC50 (EED (1-441)-His protein): 73.4 nM

COc1ccccc1CNc1ccc(-c2cccnc2)c2nncn12 [Example 27, N-(2-methoxybenzyl)-8-(pyridin-3-yl)-[1,2,4] triazolo[4,3-a]pyridin-5-amine]
IC50 [1]: 266 nM
IC50 [2, 3]: 51.5 nM
IC50 (EED (1-441)-His protein): 44.4 nM

COc1ccccc1CNc1ccc(-c2cccc(CN(C)C)c2)c2nncn12 [Example 28, 8-(3-((dimethylamino)methyl)phenyl)-N-(2-methoxybenzyl)-[1,2,4] triazolo[4,3-a]pyridin-5-amine]
IC50 [1]: 291 nM
IC50 [2, 3]: 54 nM
IC50 (EED (1-441)-His protein): 37.9 nM

COc1ccccc1CNc1ccc(-c2ccc(CN3CCC3)cc2)c2nncn12 [Example 29, 8-(4-(azetidin-1-ylmethyl)phenyl)-N-(2-methoxybenzyl)-[1,2,4]triazolo[4,3-a] pyridin-5-amine]
IC50 [1]: 87.7 nM
IC50 [2, 3]: 23.1 nM
IC50 (EED (1-441)-His protein): 13 nM

COc1ccccc1CNc1ccc(-c2ccc(CN3CCOCC3)cc2)c2nncn12 [Example 30, N-(2-methoxybenzyl)-8-(4-(morpholinomethyl)phenyl)-[1,2,4]triazolo[4,3-a]pyridin-5-amine]
IC50 [1]: 483 nM
IC50 [2, 3]: 113 nM
IC50 (EED (1-441)-His protein): 38.2 nM

COc1ccccc1CNc1ccc(-c2ccc(C(C)N3CCCC3)cc2)c2nncn12 (stereo not drawn) [Example 32, N-(2-methoxybenzyl)-8-(4-(1-(pyrrolidin-1-yl)ethyl)phenyl)-[1,2,4] triazolo[4,3-a]pyridin-5-amine]
IC50 [1]: 142 nM
IC50 [2, 3]: 38 nM
IC50 (EED (1-441)-His protein): 17.4 nM

COc1cc(F)ccc1CNc1ccc(-c2ccc(CN(C)C)cc2)c2nncn12 [Example 33, 8-(4-((dimethylamino)methyl)phenyl)-N-(4-fluoro-2-methoxybenzyl)-[1,2,4] triazolo[4,3-a]pyridin-5-amine]
IC50 [1]: 294 nM
IC50 [2, 3]: 277 nM
IC50 (EED (1-441)-His protein): 84.2 nM

COc1ccccc1CNc1ccc(-c2ccc(S(=O)(=O)N(C)C)cc2)c2nncn12 [Example 34, 4-(5-((2-methoxybenzyl)amino)-[1,2,4]triazolo[4,3-a]pyridin-8-yl)-N,N-dimethyl benzenesulfonamide]
IC50 [1]: 358 nM
IC50 [2, 3]: 18.4 nM
IC50 (EED (1-441)-His protein): 4.5 nM

COc1ccccc1CNc1ccc(-c2ccc(CN3CCOCC3)nc2)c2nncn12 [Example 38, N-(2-methoxybenzyl)-8-(6-(morpholinomethyl)pyridin-3-yl)-[1,2,4]triazolo[4,3-a] pyridin-5-amine]
IC50 [1]: 438 nM
IC50 [2, 3]: 46.9 nM
IC50 (EED (1-441)-His protein): 32.5 nM

COc1ccccc1CNc1ccc(-c2ccc(CN3CCN(C)CC3)cc2)c2nncn12 [Example 39, N-(2-methoxybenzyl)-8-(4-((4-methylpiperazin-1-yl)methyl)phenyl)-[1,2,4] triazolo[4,3-a]pyridin-5-amine]
IC50 [1]: 269 nM
IC50 [2, 3]: 37.5 nM
IC50 (EED (1-441)-His protein): 15.5 nM

COc1ccccc1CNc1ccc(-c2ccc(C[N+](C)(C)[O-])cc2)c2nncn12 [Example 40, 1-(4-(5-((2-methoxybenzyl)amino)-[1,2,4]triazolo[4,3-a]pyridin-8-yl)phenyl)-N,N-dimethylmethanamine oxide]
IC50 [1]: 457 nM
IC50 [2, 3]: 138 nM
IC50 (EED (1-441)-His protein): 78 nM

COc1ccccc1CNc1ccc(-c2ccc(C(=O)N(C)C)cc2)c2nncn12 [Example 41, 4-(5-((2-methoxybenzyl)amino)-[1,2,4]triazolo[4,3-a]pyridin-8-yl)-N,N-dimethyl benzamide]
IC50 [1]: 305 nM
IC50 [2, 3]: 47.4 nM
IC50 (EED (1-441)-His protein): 24.9 nM

COc1ccccc1CNc1ccc(-c2ccc(C(=O)N3CCCC3)cc2)c2nncn12 [Example 42, (4-(5-((2-methoxybenzyl)amino)-[1,2,4]triazolo[4,3-a]pyridin-8-yl)phenyl) (pyrrolidin-1-yl)methanone]
IC50 [1]: 206 nM
IC50 [2, 3]: 27.9 nM
IC50 (EED (1-441)-His protein): 16.5 nM

COc1ccccc1CNc1ccc(-c2cc(F)c(CN(C)C)c(F)c2)c2nncn12 [Example 43, 8-(4-((dimethylamino)methyl)-3,5-difluorophenyl)-N-(2-methoxybenzyl)-[1,2,4] triazolo[4,3-a]pyridin-5-amine]
IC50 [1]: 785 nM
IC50 [2, 3]: 3.8 nM
IC50 (EED (1-441)-His protein): 9.5 nM
